One series has as its system IL-6. The experiment in a line: IL-6 production in LPS-stimulated human whole blood (ELISA). The class given is cell-based. The note with it: LPS 4 hours, read-out: % IL-6 Inhibitory Activity (hPBMC). The procedure:
This assay determines the effect of test compounds on the production of IL-6 from human whole blood. Compounds are tested for their ability to downregulate the production of IL-6 in activated whole blood. The test compounds are pre-incubated for 15 minutes at 37° C. and then stimulated with Lipopolysaccharide (Salmonella abortus equi, 1 µg/ml) for 4 hours at 37° C. in 5% CO2. The levels of IL-6 are estimated using Enzyme linked Immunosorbent assay performed in a 96 well format as per the procedure of the manufacturer. (Cayman Chemical, Ann Arbor, USA).

In another series the test system is TNF-α. The experiment in a line: TNF-α production in LPS-stimulated human whole blood (ELISA). The class given is cell-based. The following applies: LPS 4 hours, read-out: % TNF-α Inhibitory Activity in (hPBMC). On the procedure: This assay determines the effect of the test compounds on the production of TNF-α in human whole blood. TNF-α assay is carried out as described by Armin Hatzelmann and Christian Schudt (J Pharm Exp Ther 297, 261, 2001). Compounds are tested for their ability to inhibit the activity of TNF-α in human whole blood. The test compounds are pre-incubated for 15 minutes at 37° C. and then stimulated with Lipopolysaccharide (Salmonella abortus equi, 1 µg/ml) for 4 hours at 37° C. in 5% CO2. The levels of TNF-α are estimated using Enzyme linked Immunosorbent assay performed in a 96 well format as per the procedure of the manufacturer (Cayman Chemical, Ann Arbor, USA).

`Cc1nccn1CC1CCc2c(c3ccccc3n2C)/C1=N/OC(=O)c1ccc(F)cc1` (stereo not shown) [Example 38, (4E)-9-methyl-3-[(2-methyl-1H-imidazol-1-yl)methyl]-1,2,3,9-tetrahydro-4H-carbazol-4-one O-4-fluorobenzoyloxime] returned a melting point of 192 to 200 °C. Besides, in the series with IL-6, the inhibition at 1 µM was 19.1% and the inhibition at 10 µM is 26%.
Turning to `Cc1nccn1CC1CCc2c(c3ccccc3n2C)/C1=N/OC(=O)c1ccc(C#N)cc1` (stereo not shown) [Example 44, (4E)-9-methyl-3-[(2-methyl-1H-imidazol-1-yl)methyl]-1,2,3,9-tetrahydro-4H-carbazol-4-one O-4-cyanobenzoyloxime], the melting point was 178 to 180 °C. Moreover, in the series with TNF-α, the inhibition at 1 µM was determined as 23.5% and the inhibition at 10 µM turned out to be 45.6%. Also, in the series with IL-6, the inhibition at 1 µM is 13.2% and the inhibition at 10 µM stood at 22.7%.
As for `Cc1nccn1CC1CCc2c(c3ccccc3n2C)/C1=N/OC(=O)c1cccc(C#N)c1` (stereo not shown) [Example 65, (4E)-9-methyl-3-[(2-methyl-1H-imidazol-1-yl)methyl]-1,2,3,9-tetrahydro-4H-carbazol-4-one O-3-cyanobenzoyloxime], the melting point was 160 to 166 °C. In addition, in the series with IL-6, the inhibition at 1 µM is 13.7% and the inhibition at 10 µM was 30.6%.
In the case of `Cc1nccn1CC1CCc2c(c3ccccc3n2C)/C1=N/OC(=O)c1ccccc1Cl` (stereo not shown) [Example 37, (4E)-9-methyl-3-[(2-methyl-1H-imidazol-1-yl)methyl]-1,2,3,9-tetrahydro-4H-carbazol-4-one O-2-chlorobenzoyloxime], the melting point was 111 to 116 °C. Besides, in the series with TNF-α, the inhibition at 1 µM is 14.5% and the inhibition at 10 µM was found to be 42.1%. In the series on IL-6, the inhibition at 1 µM was 21.1% and the inhibition at 10 µM came out at 32.2%.
In the case of `Cc1nccn1CC1CCc2c(c3ccccc3n2C)/C1=N/OC(=O)C1CCCCC1` (stereo not shown) [Example 42, (4E)-9-methyl-3-[(2-methyl-1H-imidazol-1-yl)methyl]-1,2,3,9-tetrahydro-4H-carbazol-4-one O-cyclohexanoyloxime], the melting point was 98 to 106 °C. Also, in the series with IL-6, the inhibition at 1 µM amounted to 7.96% and the inhibition at 10 µM came to 18.5%.
Consider `CCO/N=C1/c2c(n(C)c3ccccc23)CCC1Cn1ccnc1C` (stereo not shown) [Example 3, (4E)-9-methyl-3-[(2-methyl-1H-imidazol-1-yl)methyl]-1,2,3,9-tetrahydro-4H-carbazol-4-one O-ethyloxime], for which, in the series with TNF-α, the inhibition at 1 µM was 3.42% and the inhibition at 10 µM was determined as 26.9%. Further, in the series on IL-6, the inhibition at 1 µM was found to be 13.1% and the inhibition at 10 µM is 17.7%.
Take `Cc1nccn1CC1CCc2c(c3ccccc3n2C)/C1=N/OC(=O)c1ccccc1Br` (stereo not shown) [Example 39, (4E)-9-methyl-3-[(2-methyl-1H-imidazol-1-yl)methyl]-1,2,3,9-tetrahydro-4H-carbazol-4-one O-2-bromobenzoyloxime]: the melting point was in the range of 108 to 112 °C. Also, in the series with TNF-α, the inhibition at 1 µM was 26.1% and the inhibition at 10 µM was found to be 45.8%. Moreover, in the series on IL-6, the inhibition at 1 µM turned out to be 28.5% and the inhibition at 10 µM amounted to 19.1%.
As for `CCc1ccc(C(=O)O/N=C2/c3c(n(C)c4ccccc34)CCC2Cn2ccnc2C)cc1` (stereo not shown) [Example 41, (4E)-9-methyl-3-[(2-methyl-1H-imidazol-1-yl)methyl]-1,2,3,9-tetrahydro-4H-carbazol-4-one O-4-ethylbenzoyloxime], the melting point was 175 to 178 °C. Also, in the series on IL-6, the inhibition at 1 µM worked out at 7.63% and the inhibition at 10 µM was determined as 3.09%.
`Cc1nccn1CC1CCc2c(c3ccccc3n2C)/C1=N/OC(=O)c1cccc(Cl)n1` (stereo not shown) [Example 40, (4E)-9-methyl-3-[(2-methyl-1H-imidazol-1-yl)methyl]-1,2,3,9-tetrahydro-4H-carbazol-4-one O-6-chloropyridinoyloxime] showed a melting point of 170 to 175 °C. For the same compound, in the series with IL-6, the inhibition at 1 µM turned out to be 20.5% and the inhibition at 10 µM was found to be 21.3%.

(Values after US20090170872A1, “Compounds and Their Pharmaceutical Use” (Orchid Research Laboratories Limited, priority 2005, published 2009).)
